Each block holds one molecule with its values, some of them ahead of it.
Experiments:
S. cerevisiae Chs1 [1] = molecular target: T1, S. cerevisiae Chs1 (Saccharomyces cerevisiae, UniProt P08004); assay: in vitro chitin synthase activity assay; format: biochemical; conditions: activator; UDP-GlcNAc as donor substrate
T1 construct: expressed and purified membrane protein, homodimer; residues numbered to 1131; residues 1-377, 699-703, 897-907, 1076-1084 not resolved
T1 sequence (P08004 1-1131): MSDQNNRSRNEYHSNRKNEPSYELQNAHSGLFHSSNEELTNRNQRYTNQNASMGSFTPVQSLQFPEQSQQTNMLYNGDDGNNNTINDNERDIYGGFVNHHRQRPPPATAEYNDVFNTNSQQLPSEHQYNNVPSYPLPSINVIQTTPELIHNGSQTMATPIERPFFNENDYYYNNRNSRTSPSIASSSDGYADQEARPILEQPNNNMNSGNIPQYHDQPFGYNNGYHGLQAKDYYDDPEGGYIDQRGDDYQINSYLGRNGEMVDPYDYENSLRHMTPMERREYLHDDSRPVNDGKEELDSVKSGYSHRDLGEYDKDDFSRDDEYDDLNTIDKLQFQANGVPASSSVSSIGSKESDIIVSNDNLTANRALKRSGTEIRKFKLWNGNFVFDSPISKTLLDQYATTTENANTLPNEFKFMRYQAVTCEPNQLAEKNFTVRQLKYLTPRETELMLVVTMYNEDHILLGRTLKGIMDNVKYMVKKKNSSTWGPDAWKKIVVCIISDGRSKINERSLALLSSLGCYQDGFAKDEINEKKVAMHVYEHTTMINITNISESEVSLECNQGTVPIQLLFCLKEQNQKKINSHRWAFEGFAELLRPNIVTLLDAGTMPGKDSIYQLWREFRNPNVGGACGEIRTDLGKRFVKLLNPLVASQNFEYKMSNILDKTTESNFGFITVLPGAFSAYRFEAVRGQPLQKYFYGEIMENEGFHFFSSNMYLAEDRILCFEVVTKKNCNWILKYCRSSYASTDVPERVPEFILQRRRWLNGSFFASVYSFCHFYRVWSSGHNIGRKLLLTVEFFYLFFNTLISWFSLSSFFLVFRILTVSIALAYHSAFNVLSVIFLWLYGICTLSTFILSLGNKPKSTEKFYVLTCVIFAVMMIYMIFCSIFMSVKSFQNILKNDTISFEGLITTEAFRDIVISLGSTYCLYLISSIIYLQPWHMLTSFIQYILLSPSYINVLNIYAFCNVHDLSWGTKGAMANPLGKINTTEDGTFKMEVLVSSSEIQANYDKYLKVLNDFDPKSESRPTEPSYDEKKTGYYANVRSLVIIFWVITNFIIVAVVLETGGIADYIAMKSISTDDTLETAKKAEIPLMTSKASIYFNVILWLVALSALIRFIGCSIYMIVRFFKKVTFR

S. cerevisiae Chs1 [2] = molecular target: T1, S. cerevisiae Chs1; assay: in vitro chitin synthase activity assay; cryo-EM structure of the complex at […] A also solved; format: biochemical
[3] = molecular target: the molecule itself; assay: cryo-EM structure; purified Chs1 in complex with Nikkomycin Z (NikZ), in detergent micelle; 2.9 Å, imposed C2 symmetry

Molecule: CC(=O)N[C@H]1C(O)O[C@H](CO)[C@@H](O)[C@@H]1O (stereo partly drawn) [N-acetylglucosamine]
in vitro chitin synthase activity assay (S. cerevisiae Chs1 [1]): Chs1 activity can be significantly stimulated by GlcNAc

IC50 (S. cerevisiae Chs1 [2]): 367 nM
Molecule: C[C@@H]([C@H](N)C(=O)N[C@H](C(=O)O)[C@H]1O[C@@H](n2ccc(=O)[nH]c2=O)[C@H](O)[C@@H]1O)[C@H](O)c1ccc(O)cn1 [Nikkomycin Z]

B1: S. cerevisiae chitin synthase Chs1 (enzyme)
chain: MSDQNNRSRNEYHSNRKNEPSYELQNAHSGLFHSSNEELTNRNQRYTNQNASMGSFTPVQSLQFPEQSQQTNMLYNGDDGNNNTINDNERDIYGGFVNHHRQRPPPATAEYNDVFNTNSQQLPSEHQYNNVPSYPLPSINVIQTTPELIHNGSQTMATPIERPFFNENDYYYNNRNSRTSPSIASSSDGYADQEARPILEQPNNNMNSGNIPQYHDQPFGYNNGYHGLQAKDYYDDPEGGYIDQRGDDYQINSYLGRNGEMVDPYDYENSLRHMTPMERREYLHDDSRPVNDGKEELDSVKSGYSHRDLGEYDKDDFSRDDEYDDLNTIDKLQFQANGVPASSSVSSIGSKESDIIVSNDNLTANRALKRSGTEIRKFKLWNGNFVFDSPISKTLLDQYATTTENANTLPNEFKFMRYQAVTCEPNQLAEKNFTVRQLKYLTPRETELMLVVTMYNEDHILLGRTLKGIMDNVKYMVKKKNSSTWGPDAWKKIVVCIISDGRSKINERSLALLSSLGCYQDGFAKDEINEKKVAMHVYEHTTMINITNISESEVSLECNQGTVPIQLLFCLKEQNQKKINSHRWAFEGFAELLRPNIVTLLDAGTMPGKDSIYQLWREFRNPNVGGACGEIRTDLGKRFVKLLNPLVASQNFEYKMSNILDKTTESNFGFITVLPGAFSAYRFEAVRGQPLQKYFYGEIMENEGFHFFSSNMYLAEDRILCFEVVTKKNCNWILKYCRSSYASTDVPERVPEFILQRRRWLNGSFFASVYSFCHFYRVWSSGHNIGRKLLLTVEFFYLFFNTLISWFSLSSFFLVFRILTVSIALAYHSAFNVLSVIFLWLYGICTLSTFILSLGNKPKSTEKFYVLTCVIFAVMMIYMIFCSIFMSVKSFQNILKNDTISFEGLITTEAFRDIVISLGSTYCLYLISSIIYLQPWHMLTSFIQYILLSPSYINVLNIYAFCNVHDLSWGTKGAMANPLGKINTTEDGTFKMEVLVSSSEIQANYDKYLKVLNDFDPKSESRPTEPSYDEKKTGYYANVRSLVIIFWVITNFIIVAVVLETGGIADYIAMKSISTDDTLETAKKAEIPLMTSKASIYFNVILWLVALSALIRFIGCSIYMIVRFFKKVTFR
notes: Chitin synthase 1 (Chs1) of S. cerevisiae; residues 1-377, 699-703, 897-907 and 1076-1084 are not resolved in the map; Homodimer; source: expressed and purified
stoichiometry N [3]: 2

— PMC9726829, “Structures and mechanism of chitin synthase and its inhibition by antifungal drug Nikkomycin Z” (Cell Discovery, 2022)
